Experimental data as given in patent US4410459A, “Process for preparation of cytostatic compounds” (priority 1980, dated 1983).
Read-outs that look alike come from different tables or passages of the source.

Columns and labels:
[1] = Acute toxicity in mice (i.p., Lichfield and Wilcoxon), with paralytic side effect; type: in vivo, male Swiss mice; settings: for LD50: mouse, in vivo, ip; for Paralytic side effect: symbols 0 / + not defined
Protocol: The acute toxicity of the compounds according to the invention was tested on male Swiss mice weighing 27 to 31 g. The tests were carried out on groups of six mice. Test compounds were administered intraperitoneally, as injectable solutions prepared with physiological saline solution and optionally one drop of Tween 80.

HeLa culture = experiment: Metaphase block stages in stained tissue cultures; type: cell-based; settings: for effect on mitosis at lowest dose: 0.001 μg./ml.
Protocol: The test compounds were dissolved in the tissue cultures (HeLa culture) in concentrations ranging from the threshold dose of 1×10^-3 μg./ml. up to 100 μg./ml. In 24-hour cultures, by in vivo microscopic evaluation of the metaphase-arresting affect the following results were obtained.
Under similar conditions but using stained tissue cultures slight differences could be observed which can be classified as follows:
The first stage (minimal effective dose) is characterized by an increased ratio of blocked mitoses. A part is abnormal mitoses, for example three-group mitosis or polar chromosomes also occur. Generally the anaphases have already disappeared.
In the second stage a strong metaphase blocking is observed and practically there is no regulare mitosis present. Chromosomes are in the form of a loose glomus. The proportion of interphase cells is low.
In the third stage the chromosomas are aggregated in a mass in the middle of the cell. This state is called picnomitosis of "Ball-Metaphase".
In the fourth stage already the interphase cells are influenced. More particularly, the number of the blocked cells is decreased since they are not able to take part in mitosis. The cytoplasm of the cells (in interphase) is extended, its border is irregular, "fringy", the cells frequently have an elongated, fibroplast-like shape.
Finally, in the fifth stage the cytoplasm is filled in by a fine, reticular structure and the interphase cell has unambiguously been killed by the treatment.

P 388 mouse leukaemia = experiment: P 388 leukaemia test (life span of i.p. transplanted mice); type: in vivo, BDF hybrid mice
Protocol: (§1) The effect of the new compounds on intraperitoneally transplantable tumors (P 388 mouse leukaemia and NK/Ly ascites lymphoma) is described hereinbelow. The P 388 leukaemia test was performed on BDF hybrid mice. The tests were carried out on groups of six mice and 10^6 tumor cells/animal were transplanted intraperitoneally. Administration of the test compounds was started in the 24th hour after transplantation. Treatment was performed intraperitoneally and the body weight and state of animals was controlled every day. The effect obtained on the treated animals is expressed in % of the mean length of life of the control group, given in days.

NK/Ly ascites lymphoma = experiment: NK/Ly ascites tumour test (survival and tumor-free animals); type: in vivo, Swiss-H/Riop outbred mice
Protocol: as §1
(§2) Into groups of ten Swiss-H/Riop outbred mice from our own breed 5×10^6 ascites tumour cells were transplanted intraperitoneally. In the 24th hour after transplantation treatment was started and the compounds were administered daily, altogether five times. The mean length of life of the control group amounted to 15.7 days.

[2] = tested on: intraperitoneally transplantable tumors (P 388 mouse leukaemia and NK/Ly ascites lymphoma); experiment: Similar transplanted tumor tests with N-desmethyl-N-(methoxymethyl)-20'-desoxy-leurosidine (life span); type: in vivo; settings: for Treated/Control: mean length of life
Protocol: as §1, §2
Similar tests were performed with N-desmethyl-N-(methoxymethyl)-20'-desoxy-leurosidine. In these tests the doses and the number of treatments were varied.

[3] = Mus musculus, P388, ip, mean length of life, 8 × 0.4 mg./kg. i.p., read-out: Treated/Control
[4] = Mus musculus, P388, ip, mean length of life, 8 × 4.0 mg./kg. i.p., read-out: Treated/Control
[5] = Mus musculus, P388, ip, mean length of life, 8 × 8.0 mg./kg. i.p., read-out: Treated/Control
[6] = Mus musculus, P388, ip, mean length of life, 8 × 2.0 mg./kg. i.p., read-out: Treated/Control
[7] = Mus musculus, P388, ip, mean length of life, 8 × 1.0 mg./kg. i.p., read-out: Treated/Control

SMILES	LD50 [1]	Paralytic side effect [1]	Mean length of life, treated (P 388 mouse leukaemia; 8 × 0.4 mg./kg. i.p.)	Mean length of life, treated (P 388 mouse leukaemia; 8 × 4.0 mg./kg. i.p.)	Mean length of life, treated (P 388 mouse leukaemia; 8 × 8.0 mg./kg. i.p.)	response vs control in vivo at 0.4 mg/kg (P 388 mouse leukaemia; [3])	response vs control in vivo at 4 mg/kg (P 388 mouse leukaemia; [4])	response vs control in vivo at 8 mg/kg (P 388 mouse leukaemia; [5])	other results
CCCCCCCOCN1c2cc(OC)c(C3(C(=O)OC)CC4CN(CCc5c3[nH]c3ccccc53)CC(O)(CC)C4)cc2C23CCN4CC=CC(CC)(C(OC(C)=O)C(O)(C(=O)OC)C12)C43 (centres unmarked) [N-Desmethyl-N-(heptoxymethyl)-vinblastine]	~60 mg/kg	0	14.3 days	18.7 days	21.3 days	139%	181%	247%	relative effectiveness (HeLa culture): most effective compound; alive (NK/Ly ascites lymphoma; 5 × 6.0 mg./kg. i.p.): 10/10; on the 25th day tumor-free (NK/Ly ascites lymphoma; 5 × 6.0 mg./kg. i.p.): 7/10; on the 30th day tumor-free (NK/Ly ascites lymphoma; 5 × 6.0 mg./kg. i.p.): 3/10
CCOCN1c2cc(OC)c(C3(C(=O)OC)CC4CN(CCc5c3[nH]c3ccccc53)CC(O)(CC)C4)cc2C23CCN4CC=CC(CC)(C(OC(C)=O)C(O)(C(=O)OC)C12)C43 (centres unmarked) [N-Desmethyl-N-(ethoxymethyl)-vinblastine]	~110 mg/kg	0		18.5 days	20.5 days		167%	208%	Mean length of life, treated (P 388 mouse leukaemia; 8 × 2.0 mg./kg. i.p.): 20.3 days; response vs control in vivo at 2 mg/kg (P 388 mouse leukaemia; [6]): 193%
CC[C@]1(O)C[C@@H]2CN(CCc3c([nH]c4ccccc34)[C@@](C(=O)OC)(c3cc4c(cc3OC)N(C)[C@H]3[C@@](O)(C(N)=O)[C@H](O)[C@]5(CC)C=CCN6CC[C@]43[C@@H]65)C2)C1 [vindesine, reference compound]	4 mg/kg								
CCC1(O)CC2CN(CCc3c([nH]c4ccccc34)C(C(=O)OC)(c3cc4c(cc3OC)N(COC)C3C(O)(C(=O)OC)C(OC(C)=O)C5(CC)C=CCN6CCC43C65)C2)C1 (centres unmarked) [N-Desmethyl-N-(methoxymethyl)-vinblastine]	~100 mg/kg	0					171%		Mean length of life, treated (P 388 mouse leukaemia; 8 × 1.0 mg./kg. i.p.): 12.7 days; Mean length of life, treated (P 388 mouse leukaemia; 8 × 6.0 mg./kg. i.p.): 19.2 days; response vs control in vivo at 1 mg/kg (P 388 mouse leukaemia; [7]): 122%; response vs control in vivo at 6 mg/kg (P 388 mouse leukaemia; Mus musculus, P388, ip, mean length of life, 8 × 6.0 mg./kg. i.p., read-out: Treated/Control): 182%
CCCOCN1c2cc(OC)c(C3(C(=O)OC)CC4CN(CCc5c3[nH]c3ccccc53)CC(O)(CC)C4)cc2C23CCN4CC=CC(CC)(C(OC(C)=O)C(O)(C(=O)OC)C12)C43 (centres unmarked) [N-Desmethyl-N-(propoxymethyl)-vinblastine]	~80 mg/kg	0		19.0 days	20.2 days		171%	205%	Mean length of life, treated (P 388 mouse leukaemia; 8 × 1.0 mg./kg. i.p.): 15.0 days; Mean length of life, treated (P 388 mouse leukaemia; 8 × 2.0 mg./kg. i.p.): 20.8 days; Mean length of life, treated (P 388 mouse leukaemia; 8 × 10.0 mg./kg. i.p.): 14.7 days; Toxicity (P 388 mouse leukaemia; 8 × 10.0 mg./kg. i.p., footnote: The animals died tumorfree): toxic; response vs control in vivo at 1 mg/kg (P 388 mouse leukaemia; [7]): 145%; response vs control in vivo at 2 mg/kg (P 388 mouse leukaemia; [6]): 198%; response vs control in vivo at 10 mg/kg (P 388 mouse leukaemia; Mus musculus, P388, ip, mean length of life, 8 × 10.0 mg./kg. i.p., read-out: Treated/Control): 142%
CCC1(O)CC2CN(CCc3c([nH]c4ccccc34)C(C(=O)OC)(c3cc4c(cc3OC)N(COCc3ccccc3)C3C(O)(C(=O)OC)C(OC(C)=O)C5(CC)C=CCN6CCC43C65)C2)C1 (centres unmarked) [N-Desmethyl-N-(benzyloxymethyl)-vinblastine]	~70 mg/kg	0	13.0 days	18.3 days		126%	178%		relative effectiveness (HeLa culture): weakest effect; effect on mitosis at lowest dose (HeLa culture): minimum block with several deformed mitoses but without anaphases; effect on mitosis at 0.01 μg./ml. (HeLa culture; 0.01 μg./ml.): the block was moderate; Mean length of life, treated (P 388 mouse leukaemia; 5 × 8.0 mg./kg. i.p.): 19.2 days; response vs control in vivo at 8 mg/kg (P 388 mouse leukaemia; Mus musculus, P388, ip, mean length of life, 5 × 8.0 mg./kg. i.p., read-out: Treated/Control): 195%
CC[C@]1(O)C[C@@H]2CN(CCc3c([nH]c4ccccc34)[C@@](C(=O)OC)(c3cc4c(cc3OC)N(C)[C@H]3[C@@](O)(C(=O)OC)[C@H](OC(C)=O)[C@]5(CC)C=CCN6CC[C@]43[C@@H]65)C2)C1 [vinblastine, reference compound]		0							
CCC1CC2CN(CCc3c([nH]c4ccccc34)C(C(=O)OC)(c3cc4c(cc3OC)N(COC)C3C(O)(C(=O)OC)C(OC(C)=O)C5(CC)C=CCN6CCC43C65)C2)C1 (centres unmarked) [N-Desmethyl-N-(methoxymethyl)-20'-desoxyleurosidine]									Mean length of life, treated ([2]; 4 × 7 mg./kg. i.p.): 17.1 days; Mean length of life, treated ([2]; 4 × 8 mg./kg. i.p.): 21.8 days; Mean length of life, treated ([2]; 8 × 0.5 mg./kg. i.p.): 15.3 days; Mean length of life, treated ([2]; 8 × 1 mg./kg. i.p.): 21.7 days; Mean length of life, treated ([2]; 8 × 4 mg./kg. i.p.): 20.8 days; Treated/Control ([2]; 4 × 7 mg./kg. i.p.): 142%; Treated/Control ([2]; 4 × 8 mg./kg. i.p.): 180%; Treated/Control ([2]; 8 × 0.5 mg./kg. i.p.): 126%; Treated/Control ([2]; 8 × 1 mg./kg. i.p.): 178%; Treated/Control ([2]; 8 × 4 mg./kg. i.p.): 180%
C=CCOCN1c2cc(OC)c(C3(C(=O)OC)CC4CN(CCc5c3[nH]c3ccccc53)CC(O)(CC)C4)cc2C23CCN4CC=CC(CC)(C(OC(C)=O)C(O)(C(=O)OC)C12)C43 (centres unmarked) [N-Desmethyl-N-(allyloxymethyl)-vinblastine]	~45 mg/kg	0	15.0 days	21.0 days	20.5 days	145%	200%	207%	alive (NK/Ly ascites lymphoma; 5 × 4.0 mg./kg. i.p.): 10/10; on the 25th day tumor-free (NK/Ly ascites lymphoma; 5 × 4.0 mg./kg. i.p.): 10/10; on the 30th day tumor-free (NK/Ly ascites lymphoma; 5 × 4.0 mg./kg. i.p.): 6/10
CCC1(O)CC2CN(CCc3c([nH]c4ccccc34)C(C(=O)OC)(c3cc4c(cc3OC)N(COC3CCCCC3)C3C(O)(C(=O)OC)C(OC(C)=O)C5(CC)C=CCN6CCC43C65)C2)C1 (centres unmarked) [N-Desmethyl-N-(cyclohexaloxymethyl)vinblastine]	~60 mg/kg	0	13.1 days	18.8 days	19.3 days	127%	181%	197%	alive (NK/Ly ascites lymphoma; 5 × 4.0 mg./kg. i.p.): 10/10; on the 25th day tumor-free (NK/Ly ascites lymphoma; 5 × 4.0 mg./kg. i.p.): 5/10; on the 30th day tumor-free (NK/Ly ascites lymphoma; 5 × 4.0 mg./kg. i.p.): 3/10
CCC1(O)CC2CN(CCc3c([nH]c4ccccc34)C(C(=O)OC)(c3cc4c(cc3OC)N(COCC(C)C)C3C(O)(C(=O)OC)C(OC(C)=O)C5(CC)C=CCN6CCC43C65)C2)C1 (centres unmarked) [N-Desmethyl-N-(isobutoxymethyl)-vinblastine]	~60 mg/kg	0	13.7 days	20.0 days	20.5 days	133%	194%	208%	relative effectiveness (HeLa culture): an order of a magnitude lower effect; effect on mitosis at lowest dose (HeLa culture): regular mitoses could still be observed; alive (NK/Ly ascites lymphoma; 5 × 4.0 mg./kg. i.p.): 10/10; on the 25th day tumor-free (NK/Ly ascites lymphoma; 5 × 4.0 mg./kg. i.p.): 10/10; on the 30th day tumor-free (NK/Ly ascites lymphoma; 5 × 4.0 mg./kg. i.p.): 7/10
